Measured values from the supplement of paper PMC10307832.

Experiments:
Assay in all cases: relative viability (nuclei count vs DMSO), 5 days (fraction); higher = more cells survive
Navitoclax = compound: CC1(C)CCC(c2ccc(Cl)cc2)=C(CN2CCN(c3ccc(C(=O)NS(=O)(=O)c4ccc(N[C@H](CCN5CCOCC5)CSc5ccccc5)c(S(=O)(=O)C(F)(F)F)c4)cc3)CC2)C1 [Navitoclax]
How it was run: (§1)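 For viability, nuclei in each treated well were divided by nuclei in vehicle wells and the median across plates was taken. Lung cancer cell lines in 1536-well plates were pinned with five library-drug doses (not always all listed) spaced by √10, cultured 5 days without medium change, and imaged at 4× after Hoechst staining, with plates passing only at control CV below 25% and at least one doubling.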

AZD7762 = compound: NC(=O)Nc1cc(-c2cccc(F)c2)sc1C(=O)N[C@H]1CCCNC1 [AZD7762]
How it was run: as §1

[1] = compound: O=C(O)c1ccc(-c2c[nH]c3ncc(-c4ccccc4)cc23)cc1C1CCCC1
How it was run: as §1

XAV939 = compound: Oc1nc(-c2ccc(C(F)(F)F)cc2)nc2c1CSCC2 [XAV939]
How it was run: as §1

C-75 = compound: CCCCCCCC[C@H]1[C@@H](C(=C)C(=O)O1)C(=O)O [C-75]
How it was run: as §1

| Cell Line | relative viability (Navitoclax; 0.005 µM) | relative viability (Navitoclax; 0.01581 µM) | relative viability (Navitoclax; 0.05 µM) | relative viability (Navitoclax; 0.1581 µM) | relative viability (Navitoclax; 0.5 µM) | relative viability (Navitoclax; 0.5 µM, anchor plate) | relative viability (AZD7762; 0.01 µM) | relative viability (AZD7762; 0.03162 µM) | relative viability (AZD7762; 0.1 µM) | relative viability (AZD7762; 0.2 µM, anchor plate) | relative viability (AZD7762; 0.3162 µM) | relative viability (AZD7762; 1 µM) | relative viability ([1]; 0.04 µM) | relative viability ([1]; 0.1265 µM) | relative viability ([1]; 0.4 µM) | relative viability ([1]; 1.265 µM) | relative viability (XAV939; 0.08 µM) | relative viability (XAV939; 0.253 µM) | relative viability (XAV939; 0.8 µM) | relative viability (XAV939; 2.53 µM) | relative viability (C-75; 0.08 µM) | relative viability (C-75; 0.253 µM) | relative viability (C-75; 0.8 µM) | relative viability (C-75; 2.53 µM) | relative viability (C-75; 8 µM) |
| --- | --- | --- | --- | --- | --- | --- | --- | --- | --- | --- | --- | --- | --- | --- | --- | --- | --- | --- | --- | --- | --- | --- | --- | --- | --- |
| LOU-NH91 | 1.01 | 1 | 0.921 | 0.865 | 0.513 | 0.718 | 0.941 | 1.1 | 0.975 | 0.784 | 0.894 | 0.775 | 0.934 | 1.14 | 0.975 | 0.915 | 0.979 | 0.868 | 0.954 | 0.953 | 0.959 | 0.977 | 0.862 | 0.778 | 0.969 |
| LU99A | 0.916 | 1.13 | 0.933 | 1.03 | 1.04 | 0.839 | 0.943 | 1.1 | 0.995 | 0.356 | 0.986 | 0.414 | 0.958 | 0.941 | 0.894 | 0.65 | 0.78 | 0.827 | 0.939 | 1.02 | 1 | 0.928 | 0.97 | 0.834 | 0.858 |
| LXF-289 | 0.974 | 0.989 | 0.884 | 0.99 | 0.972 | 0.949 | 0.963 | 1.02 | 1.05 | 1.1 | 0.979 | 1.07 | 0.969 | 0.967 | 0.876 | 0.703 | 1 | 0.94 | 0.998 | 1.03 | 0.958 | 0.95 | 0.983 | 0.862 | 1.02 |
| NCI-H23 | 0.925 | 0.979 | 0.98 | 0.896 | 0.962 | 0.869 | 0.866 | 1.07 | 0.993 | 0.273 | 0.693 | 0.278 | 0.947 | 1.22 | 0.812 | 0.699 | 0.973 | 0.796 | 0.982 | 0.838 | 0.897 | 1.07 | 0.867 | 0.687 | 0.44 |
| NCI-H322M | 1.03 | 1.1 | 0.926 | 0.974 | 1.06 | 1.24 | 0.956 | 1.06 | 0.928 | 0.589 | 0.683 | 0.397 | 1.01 | 1.02 | 0.956 | 0.886 | 1.03 | 0.835 | 0.852 | 0.655 | 0.964 | 1.22 | 0.905 | 0.839 | 0.952 |
| NCI-H358 | 1.01 | 1.2 | 0.961 | 0.985 | 0.977 |  | 1.02 | 1.13 | 0.878 | 0.536 | 0.758 | 0.444 | 0.893 | 1.17 | 0.88 | 0.611 | 0.795 | 0.77 | 0.857 | 0.777 | 0.849 | 0.896 | 0.874 | 0.854 | 0.693 |
| NCI-H441 | 0.981 | 1.07 | 1.06 | 1.11 | 0.986 | 0.701 | 1.11 | 1.2 | 1.05 | 1.14 | 1.34 | 1.03 | 1.01 | 1.08 | 0.817 | 0.6 | 1.18 | 0.962 | 1.1 | 1.04 | 1.14 | 1.09 | 0.907 | 0.764 | 0.957 |
| NCI-H460 | 0.988 | 1.01 | 0.951 | 0.977 | 0.963 | 1.08 | 1.06 | 1 | 1.01 | 0.618 | 0.954 | 0.387 | 1.01 | 1.05 | 0.991 | 0.92 | 0.996 | 0.88 | 0.944 | 0.929 | 1.01 | 1.04 | 0.922 | 0.768 | 0.946 |
| NCI-H520 | 0.997 | 0.925 | 1.14 | 0.99 | 0.94 | 1.12 | 1.09 | 1.01 | 0.972 |  | 0.89 | 0.337 | 1.03 | 0.894 | 1.01 | 0.902 | 1.09 | 0.965 | 0.87 | 0.928 | 1.02 | 1.21 | 0.952 | 0.615 | 0.825 |
| NCI-H522 | 0.841 | 1.12 | 1.03 | 0.912 | 0.978 |  | 1.02 | 1.15 | 0.955 | 0.841 | 0.939 | 0.839 | 0.851 | 1.13 | 0.83 | 0.945 | 0.962 | 0.901 | 0.983 | 0.881 | 0.97 | 0.898 | 1.02 | 0.721 | 0.873 |
| NCI-H596 | 1.07 | 0.942 | 0.711 | 0.964 | 1.04 | 0.936 | 1.07 | 1.08 | 1.08 | 1.1 | 0.929 | 0.891 | 0.927 | 0.982 | 1.02 | 0.971 | 1.1 | 1.02 | 1.11 | 1.03 | 1.01 | 1.14 | 0.909 | 0.852 | 0.997 |
| NCI-H647 | 0.859 | 1.04 | 1.13 | 0.871 | 0.881 | 1.12 | 1.04 | 1.14 | 0.923 | 0.505 | 0.616 | 0.194 | 0.975 | 1.03 | 0.908 | 0.709 | 1.02 | 0.845 | 0.918 | 0.866 | 0.919 | 0.996 | 0.74 | 0.915 | 0.78 |
| NCI-H650 | 0.908 | 0.97 | 0.956 | 0.853 | 1.04 |  | 1.08 | 1.05 | 0.905 | 1.03 | 0.954 | 0.914 | 0.908 | 1.03 | 0.77 | 0.67 | 1.03 | 1.08 | 0.99 | 0.824 | 0.916 | 0.875 | 0.862 | 0.87 | 0.817 |
